Patent US20240199651A1, “ANTIBACTERIAL COMPOUNDS” (JANSSEN SCIENCES IRELAND UNLIMITED COMPANY, priority 2021, published 2024)
Read-outs that look alike come from different tables or passages of the source.

Key:
[1] = Mitochondrial toxicity (Glu/Gal) assay; format: cell-based; parameters: Glu/Gal: Glu / Glu/Gal: Gal: unit not given here; details: for Δ IC50, glu/IC50, gal: ratio IC50 glu / IC50 gal; for Score: mitotoxicity score, Glu/Gal assay
[2] = tested on: Mycobacterium tuberculosis strain EH4.0 expressing green-fluorescent protein (GFP); experiment: microbe, parasite or virus in culture; format: cell-based
[3] = LM CLint (microsomal stability), human; format: in vitro ADME; details: for microsomal CLint at 1 µM: liver microsomes, read-out: CLint Microsomes, Human (h)
Source text: (§1) The compounds of the invention/examples may have advantages associated with in vitro potency, kill kinetics (i.e. bactericidal effect) in vitro, PK properties, food effect, safety/toxicity (including liver toxicity, coagulation, 5-LO oxygenase), metabolic stability, Ames II negativity, MNT negativity, aqueous based solubility (and ability to formulate) and/or cardiovascular effect e.g. on animals (e.g. anesthetized guinea pig). Data that is generated/calculated may be obtained using standard methods/assays, for instance that are available in the literature or which may be performed by a supplier (e.g. Microsomal Stability Assay—Cyprotex, Mitochondrial toxicity (Glu/Gal) assay—Cyprotex, as well as literature CYP cocktail inhibition assays). GSH can be measured (reactive metabolites, glucuronidation) to observe if a dihydrodiol is observed by LCMS (fragmentation ions), which would correspond to a dihydroxylation on the core heterocycle.
(§2) CLint Microsomes (μL/Min/Mg) in Dog (d), Human (h), Mouse (m) and Rat (r) (all at 1 μm)

[4] = LM CLint (microsomal stability), mouse; format: in vitro ADME; details: for microsomal CLint at 1 µM: microsomes
Source text: as §1, §2

[5] = Chemical stability testing (LCMS); format: physicochemical; details: 30 µM
Procedure: • Add 3 μl of a 10 mM DMSO stock solution to 1 ml of the following solvents in a 1.5 ml HPLC vial. • DMSO (reference solution) • H2O/Acetonitril 1/1 (assay solution) • 0.1N HCl/Acetonitril 1/1 (assay solution) • Mix well, […] LCMS • Compare the chromatograms of the two assay solutions with the reference solution and report the additional peaks as degradation peaks

MDCK = MDCK permeability (AB+inh, BA/AB); details: with inhibitor
[6] = galactose medium (Glu/Gal mitotoxicity assay), read-out: IC50, gal
[7] = glucose medium (Glu/Gal mitotoxicity assay), read-out: IC50, glu
[8] = Mycobacterium tuberculosis, Test 1 (and/or Test 2), M. tuberculosis
[9] = 1 μm, read-out: CLint Microsomes, Mouse (m)

With `CCc1nc2cc(Cl)c(C)cn2c1C(=O)NCc1ccc(-c2nc3n(n2)CCN(S(=O)(=O)C(F)(F)F)C3)c(F)c1` [Compound 19] the IC50 [1, 6] was over 25 µM, the IC50 [1, 7] was over 25 µM and the IC50 [2, 8] was 0.331 µM.

With `Cc1cnc2nc(C(F)(F)F)c(C(=O)NCc3ccc(-c4cc5n(n4)CCN(S(=O)(=O)C(F)(F)F)C5)cc3)n2c1` [Compound 114] the IC50 [1, 6] was over 12.5 µM, the IC50 [1, 7] was over 12.5 µM and the AC50 [2, 8] was 0.0098 µM.

With `CCc1nc2ncc(C)cn2c1C(=O)NCc1cccc(Cc2nc3n(n2)CCN(S(=O)(=O)C(F)(F)F)C3)c1` [Compound 71] the IC50 ([1]; read-out: IC50, gal) was over 200 µM, the IC50 ([1]; read-out: IC50, glu) was over 200 µM and the IC50 [2, 8] was over 0.501 µM.

In the case of `CCc1nc2ncc(C)cn2c1C(=O)NCc1ccc(-c2cc3n(n2)CCN(S(=O)(=O)C(F)(F)F)C3)c(C)c1` [Compound 84], the “CLint Microsomes, Human (h)” value ([3]; 1 μm) is reported as 205 μL/Min/Mg, the IC50 [1, 6] is reported as 62.5 µM and the IC50 [1, 7] is reported as over 200 µM. For the same molecule, the “Δ IC50, glu/IC50, gal” value [1] was over 3.2, the “CLint Microsomes, Mouse (m)” value ([4]; 1 μm) was 21.2 μL/Min/Mg and the AC50 [2] was 0.0076 µM.

With `CCc1nc2ncc(C)cn2c1C(=O)NCc1ccc(-c2nc3n(n2)CCN(S(=O)(=O)C(F)(F)F)C3)c(F)c1` [Compound 7] the “chemical stability, % by LCMS” value ([5]; 72 h) was 100%, the “chemical stability, % by LCMS” value ([5]; 72 h, pH 1.6) was 100% and the “MDCK AB+inh” value (MDCK) was 21.4. For the same molecule, the “Glu/Gal: Glu” value ([1]; first value (Glu)) was over 200, the IC50 ([1]; read-out: IC50, gal) was over 200 µM and the IC50 ([1]; read-out: IC50, glu) was over 200 µM. For the same molecule, the “Glu/Gal: Gal” value ([1]; second value (Gal)) was over 200 and the microsomal CLint at 1 µM [4] was under 7.7 µL/min/mg.

In the case of `CCc1nc2ccc(Cl)cn2c1C(=O)NCc1cnc(-c2nc3n(n2)CCN(S(=O)(=O)C(F)(F)F)C3)c(F)c1` [Compound 15], the “chemical stability, % by LCMS” value ([5]; 72 h) is reported as 97.03%, the “chemical stability, % by LCMS” value ([5]; 72 h, pH 1.6) is reported as 97.49% and the microsomal CLint at 1 µM [3] is reported as 16.2 µL/min/mg. The IC50 ([1]; read-out: IC50, gal) was over 200 µM, the IC50 ([1]; read-out: IC50, glu) was over 200 µM and the microsomal CLint at 1 µM [4, 9] was 50.6 µL/min/mg.

`Cc1cnc2nc(C(F)(F)F)c(C(=O)NCc3ccc(-c4nc5n(n4)CCN(S(=O)(=O)C(F)(F)F)C5)cc3)n2c1` [Compound 113] showed an IC50 [1, 6] of over 100 µM, an IC50 [1, 7] of over 100 µM and an AC50 [2, 8] of 0.032 µM.

For `Cc1cnc2nc(C3CC3)c(C(=O)NCc3ccc(-c4nc5n(n4)CCN(S(=O)(=O)C(F)(F)F)C5)c(C)c3)n2c1` [Compound 98], the microsomal CLint at 1 µM [3] was 51.8 µL/min/mg, the Score [1] was “[x]1” and the “Δ IC50, glu/IC50, gal” value [1] was 1.81. For the same molecule, the IC50 ([1]; read-out: IC50, gal) was 97.8 µM, the IC50 ([1]; read-out: IC50, glu) was 177 µM and the microsomal CLint at 1 µM [4, 9] was 26.9 µL/min/mg. It also gave an AC50 [2, 8] of 0.017 µM.

With `CCc1nc2ncc(C)cn2c1C(=O)NCc1ccc(-c2nn3c(c2C)CN(S(=O)(=O)C(F)(F)F)CC3)cc1` [Compound 85] the IC50 [1, 6] was 30.1 µM, the IC50 [1, 7] was over 200 µM and the Score [1] was “[x]3”. The “Δ IC50, glu/IC50, gal” value [1] was over 6.65 and the AC50 ([2]; Test 1 (and/or Test 2), M. tuberculosis) was 0.018 µM.

With `CCc1nc2nc3c(cn2c1C(=O)NCc1ccc(-c2nc4n(n2)CCN(S(=O)(=O)C(F)(F)F)C4)c(F)c1)CCOC3` [Compound 18] the microsomal CLint at 1 µM [3] was 20.1 µL/min/mg, the Score [1] was “[x]1” and the “Δ IC50, glu/IC50, gal” value [1] was over 1.09. The IC50 ([1]; read-out: IC50, gal) was 184 µM, the IC50 ([1]; read-out: IC50, glu) was over 200 µM and the microsomal CLint at 1 µM [4, 9] was 36.9 µL/min/mg.

For `CCc1nc2ncc(C)cn2c1C(=O)NCc1ccc(-c2nc3n(n2)CCN(S(=O)(=O)N2CCCC2)C3)cc1` [Compound 47], the “chemical stability, % by LCMS” value ([5]; 48 h) was 99%, the “chemical stability, % by LCMS” value ([5]; 48 h, pH 1.6) was 100% and the microsomal CLint at 1 µM [3] was 58.5 µL/min/mg. The IC50 ([1]; read-out: IC50, gal) was over 200 µM, the IC50 ([1]; read-out: IC50, glu) was over 200 µM and the microsomal CLint at 1 µM [4, 9] was 13.9 µL/min/mg.
